From US20210161997A1, “TREATING DISEASES VIA TARGETED MODULATION OF GENE SIGNALING NETWORKS” (Camp4 Therapeutics Corporation, priority 2018, published 2021)

Assays:
SLC37A4 = assay: RNA-seq of SLC37A4 expression in compound-treated primary human hepatocytes; type: cell-based
Procedure: Human hepatocytes were obtained from two donors from Massachusetts General Hospital, namely MGH54 and MGH63, and one donor from Lonza, namely HUM4111B. Cryopreserved hepatocytes were cultured in plating media for 16 hours, transferred to maintenance media for 4 hours. Cultured on serum-free media for 2 hours, then a compound was added. The hepatocytes were maintained on the serum-free media for 16 hours prior to gene expression analysis. Primary human hepatocytes were stored in the vapor phase of a liquid nitrogen freezer (about −130° C.).
Human hepatocytes cultured as described above were plated in 24-well format, adding 375,000 cells per well in a volume of 500 ul plating medium. Four hours before treatment, cells were washed with PBS and the medium was changed to either: fresh maintenance medium (complete) or modified maintenance medium.
Compound stocks were prepared at 1000× final concentration and added in a 2-step dilution to the medium to reduce risk of a compound precipitating out of solution when added to the cells, and to ensure reasonable pipetting volumes. One at a time, each compound was first diluted 10-fold in warm (about 37° C.) modified maintenance medium (initial dilution=ID), mixed by vortexing, and the ID was diluted 100-fold into the cell culture (e.g. 5.1 ul into 1 well of a 24-well plate containing 0.5 mL medium). The plate was mixed by carefully swirling and after all wells were treated and returned to the incubator overnight. If desired, separate plates/wells were treated with vehicle-only controls and/or positive controls. If using multi-well plates, controls were included on each plate. After about 18 hours, cells were harvested for further analysis, e.g., ChIP-seq, RNA-seq, ATAC-seq, etc.
This protocol is a modified version of the following protocols: MagMAX mirVana Total RNA Isolation Kit User Guide (Applied Biosystems #MAN0011131 Rev B.0), NEBNext Poly(A) mRNA Magnetic Isolation Module (E7490), and NEBNext Ultra Directional RNA Library Prep Kit for Illumina (E7420) (New England Biosystems #E74901).
The MagMAX mirVana kit instructions (the section titled “Isolate RNA from cells” on pages 14-17) were used for isolation of total RNA from cells in culture. Two hundred μl of Lysis Binding Mix was used per well of the multiwell plate containing adherent cells (usually a 24-well plate).
For mRNA isolation and library prep, the NEBNext Poly(A) mRNA Magnetic Isolation Module and Directional Prep kit was used. RNA isolated from cells above was quantified, and prepared in […] of each sample in 50 μl of nuclease-free water. This protocol may be run in microfuge tubes or in a 96-well plate.
All pass filter reads from each sample were mapped against the human genome (assembly GRCh38/GCA_000001405.15 “no alt” analysis set merged with hs38d1/GCA_000786075.2) using two pass mapping via STAR version 2.5.3a (alignment parameters alignIntronMin=20; alignIntronMax=1000000; outFilterMismatchNmax=999; outFilterMismatchNoverLmax=0.05; outFilterType=BySJout; outFilterMultimapNmax=20; alignSJoverhangMin=8; alignSJDBoverhangMin=1; alignMatesGapMax=1000000) (Dobin et al., Bioinformatics (2012) 29(1):15-21). Genomic alignments were converted to transcriptome alignments based on reference transcript annotations from the Human GENCODE Gene Set release 24 (Harrow et al., Genome Res. (2012) 22(9): 1760-1774). Using unique and multimapped transcriptomic alignments, gene-level abundance estimates were computed using RSEM version 1.3.0 (Li and Dewey, BMC Bioinformatics (2011) 12:323) in a strand-aware manner, and including confidence interval sampling calculations, to arrive at posterior mean estimates (PME) of abundances (counts and normalized FPKM—fragments per kilobase of exon per million mapped fragments) from the underlying Bayesian model. Standard QC were applied (read integrity, mapping statistics, library complexity, fragment bias) to remove unsatisfactory samples.

NOTCH2 = assay: RNA-seq of NOTCH2 expression in compound-treated primary human hepatocytes; type: cell-based; settings: primary human hepatocytes
In short: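 Cryopreserved primary human hepatocytes from three donors, switched to serum-free medium 2 h before compound addition, were harvested about 18 h after treatment. Poly(A) mRNA was sequenced and aligned to GENCODE release 24, with DESeq2 negative binomial differential expression. Fold change is the treated level over the unperturbed level.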

Compound	SLC37A4 Fold Change (Log2) (SLC37A4)	NOTCH2 Fold Change (Log2) (NOTCH2)
S=C(NCc1ccc2c(c1)OCO2)N1CCN(c2ncnc3c2oc2ccccc23)CC1 [Amuvatinib]	0.97	−0.79
O=C1CCC(N2C(=O)c3ccccc3C2=O)C(=O)N1 (stereo not shown) [Thalidomide]	0.64	−0.68
